{"source": "patent US20080227832A1", "about": "“Modified Coffee, Method of Roasting Coffee Bean, Coffee-Like Supplement and Auxiliary Food” (TAMA-TLO Corporation, priority 2004, published 2008)", "key": {"[1]": {"test": "Metabolites in 24-hour urine of rats given Maillard reaction products orally (HPLC)", "settings": "rat", "procedure": "Then, 100 μl of acetonitrile/phosphate buffer (7/93) adjusted to pH 2.0 was injected into the HPLC apparatus through the injection microsyringe. The apparatus and the experimental conditions were the same as those described above.\nThe specification of the HPLC apparatus and experimental conditions were the same as described above."}, "[2]": {"tested_on": "male Wistar rats", "test": "Blood free-fatty acid level time course after 5-MPCA", "type": "in vivo, rat", "settings": "50 mg/kg, 1, 2, 4 and 6 hours after administration", "procedure": "Further, using four-week-old male Wistar rats, the following experiment was performed. A control group was administered with physiological saline. A test group was administered with a solution of 50 mg/kg of 5-methylpyrazine-2-carboxylic acid (5-MPCA) dissolved in physiological saline. Immediately before starting the administration and 1, 2, 4, and 6 hours after the administration, each 6 rats were decapitated and blood was collected from each rat. According to a conventional method, plasma was separated from each sample blood and blood levels of free-fatty acid (FFA) were determined using a kit for determining free-fatty acid level. […] That is, FIG. 10 is a diagram showing the effect of 5-methylpyrazinecarboxylic acid on the blood free-fatty acid level of the rats."}, "[3]": {"tested_on": "absorption of glucose in digestive tracts", "settings": "animal test; cited from earlier work"}, "[4]": {"tested_on": "male Wistar rats", "settings": "oral, 10 mg/kg nicotinic acid alone"}, "[5]": {"tested_on": "male Wistar rats"}, "[6]": {"test": "Water solubility as described for addition to liquid foods", "type": "physicochemical", "procedure": "The case where the above-mentioned group A to C compounds are added to any liquid foods and beverages (coffee, refreshing beverages, etc.) or hydrophilic solutions (for example, aqueous solutions and alcohol solutions) is described hereinbelow. […] Since the group B compounds are water-soluble but have strong volatility, it is recommended that simple dissolution thereof may be performed after concentration of a coffee extract and freeze-drying, if any. […] Since the group C compounds are water-soluble but have weak volatility, they may be simply dissolved similarly to the group B compounds."}, "[7]": {"tested_on": "insulin sensitivity", "settings": "rat, in vivo; cited from earlier work"}}, "note": "Where two headings read alike, the source gives them in different places.", "data": [{"compound": "Cc1cnc(C)cn1", "note": "[2,5-dimethylpyrazine]", "values": [{"measurement": "conversion by metabolism in liver", "setting": "[1]; 50 mg/kg, 24-hour urine", "result": "converted into a group C compound"}]}, {"compound": "Cc1cnc(C(=O)O)cn1", "note": "[5-MPCA, 5-methyl-pyrazine-2-carboxylic acid]", "values": [{"measurement": "rebound phenomenon of blood free-fatty acid level", "setting": "[2]", "result": "no rebound phenomenon"}]}, {"compound": "O=C(/C=C/c1ccc(O)c(O)c1)O[C@@H]1C[C@](O)(C(=O)O)C[C@@H](O)[C@H]1O", "note": "[Chlorogenic acid, chlorogenic acid]", "values": [{"measurement": "speed of absorption of glucose in digestive tracts", "setting": "[3]", "result": "reducing a speed of absorption of glucose in digestive tracts"}]}, {"compound": "O=C(O)c1cccnc1", "note": "[nicotinic acid]", "values": [{"measurement": "rebound phenomenon after 1 hour of the administration", "setting": "[4]", "result": "present in a mixed manner"}, {"measurement": "rebound phenomenon after 2 hours of the administration", "setting": "[4]", "result": "all the animals showed the rebound phenomenon"}, {"measurement": "time after which rebound phenomenon was observed", "setting": "[5]; 10 to 20 mg/kg", "result": 2, "unit": "h"}, {"measurement": "time after which rebound phenomenon was observed", "setting": "[5]; oral, 5 mg/kg", "result": 1, "unit": "h"}, {"measurement": "time after which rebound phenomenon was observed", "setting": "[5]; oral, 10 mg/kg", "result": 2, "unit": "h"}, {"measurement": "time after which rebound phenomenon was observed", "setting": "[5]; oral, 50 mg/kg", "result": 4, "unit": "h"}, {"measurement": "blood free-fatty acid level after 30 minutes of the administration", "setting": "[5]; oral, any dose of from 5 mg/kg to 50 mg/kg", "result": "≤ 0.5", "unit": "mEq/l"}]}, {"compound": "O=Cc1ccc[nH]1", "note": "[pyrrole-2-aldehyde]", "values": [{"measurement": "recovery in urine (in words)", "setting": "[1]; 50 mg/kg oral, urine collected after 24 hours", "result": "almost quantitative"}]}, {"compound": "Cc1nc(C)c(C)nc1C", "note": "[tetramethylpyrazine]", "values": [{"measurement": "water solubility", "setting": "[6]", "result": "hardly water-soluble"}]}, {"compound": "chlorogenic lactone", "values": [{"measurement": "insulin sensitivity", "setting": "[7]", "result": "Enhancement of insulin sensitivity"}]}]}
